Patent publication US9233171B2, “Method of treatment of tumors that are resistant to EGFR antibody therapies by EGFR antibody cytotoxic agent conjugate” (ImmunoGen, Inc., priority 2011, dated 2016)
Read-outs that look alike come from different tables or passages of the source.

How the values were obtained:
H2228 cells [1] = conditions: H2228, Koivunen et al. 2008; cited from earlier work
H2228 cells [2] = assay: cytotoxic activity, H2228; type: cell-based; conditions: Homo sapiens, NCI-H2228
Description: (§1) The cytotoxic assay was performed as follows.
EML4-ALK gene translocation leads to a constitutive activation of ALK kinase and has been identified as a driver mutation in ˜5% of NSCLC adenocarcinoma (reviewed in Castro-Carpeno J. et al., Clin Transl Oncol. 13:774-779 (2011)). […] Unfortunately, ˜40% of EML4-ALK+ tumors are resistant to crizotinib. Additionally, tumors that are sensitive to crizotinib can rapidly develop resistance to the drug (Castro-Carpeno J. et al., Clin Transl Oncol. 13:774-779 (2011)).

HCC827-ER-E4 cell line [3] = assay: Western blot after 16 hour erlotinib treatment, HCC827-ER-E4; type: cell-based; conditions: HCC827-ER-E4, erlotinib 16 hours
HCC827-ER cell line [4] = assay: in vitro cytotoxicity assay, HCC827-ER
HCC827-ER-E4 cell line [5] = assay: in vitro cytotoxicity assay, HCC827-ER-E4
[6] = test system: HCC827 parental cell line; assay: Western blot after 16 hour erlotinib treatment, HCC827 parental; type: cell-based; conditions: erlotinib 16 hours
[7] = test system: Parental HCC827 (Aichi) cells; assay: in vitro cytotoxicity assay, parental HCC827 (Aichi); type: cell-based
Description: as §1
(§2) The HCC827 ER cell line contains high MET gene copy number and the HCC827 EPR cell line carries T790M EGFR mutation (Suda K. et al. Clin Cancer Res 16: 5489 (2010)). These cell lines reflect the two major mechanisms of resistance against EGFR tyrosine kinase inhibitors (Sequist L. et al. Sci Transl Med 3: 75ra26 (2011)).

H226 cell line [8] = conditions: H226, Yauch et al. 2005; cited from earlier work
HCC827 cell line = assay: in vitro cytotoxic assay, HCC827 in absence or presence of HGF
Detroit 562 = assay: in vitro cytotoxicity assay, Detroit 562; type: cell-based; conditions: Detroit562
HCC827-ER cell line [9] = test system: HCC827-ER cell line
[10] = target: EGFR on parental HCC827 (Aichi) NSCLC cells (exon 19 deletion EGFR mutation) (UniProt P00533 25-1210); assay: cell-based or functional assay
H226 cell line [11] = assay: in vitro cytotoxic assay, H226; type: cell-based
Description: as §1
NSCLC cell lines with mesenchymal histology are generally more resistant to gefitinib than those with epithelial histology (Yauch R L. et al. Clin Cancer Res 11: 8686 (2005)). […] H226 cell line is a squamous cell carcinoma with mesenchymal histology.

HCC827 ER (Aichi) cells = assay: in vitro cytotoxicity assay, HCC827 ER (Aichi); type: cell-based
Description: as §1, §2

HCC827 EPR (Aichi) cells = assay: in vitro cytotoxicity assay, HCC827 EPR (Aichi); type: cell-based
Description: as §1, §2

HCC827-ER-E4 cell line [12] = test system: HCC827-ER-E4 cell line
NCI-H1975 cell line = assay: in vitro cytotoxic assay (WST-8), NCI-H1975; type: cell-based
Description: NCI-H1975 cell line is a NSCLC adenocarcinoma cell line that carries both sensitizing (L858R) and resistant (T790M) EGFR mutations (Cosmic database, Wellcome Trust Sanger Institute), thus it closely mimics the EGFR kinase inhibitor resistant tumors found in the clinical setting.
as §1

With COc1cc(N2CCC(N3CCN(C)CC3)CC2)ccc1Nc1ncc(Cl)c(Nc2ccccc2S(=O)(=O)C(C)C)n1 [TAE684] as the molecule, how does the “resistance of cell line” value (H2228 cells [1]) read?
The value was “resistant”.

For C[C@@H](Oc1cc(-c2cnn(C3CCNCC3)c2)cnc1N)c1c(Cl)ccc(F)c1Cl [crizotinib], which EC50 (H2228 cells [2]; H2228, EML4-ALK translocation, read-out: EC50) is on record?
The EC50 was 3.82 µM.

Which results are given for C#Cc1cccc(Nc2ncnc3cc(OCCOC)c(OCCOC)cc23)c1 [erlotinib]?
AKT level (HCC827-ER-E4 cell line [3]): not changed; EGFR phosphorylation (HCC827-ER-E4 cell line [3]): completely inhibited; ERK1/2 phosphorylation (HCC827-ER-E4 cell line [3]): less impact; phospho AKT (pAKT) level (HCC827-ER-E4 cell line [3]): little change; cytotoxic effect (HCC827-ER cell line [4]): highly resistant; cytotoxic effect (HCC827-ER-E4 cell line [5]): maintained erlotinib resistance; AKT level [6]: reduced; AKT phosphorylation [6]: inhibited; EGFR phosphorylation [6]: completely inhibited; ERK1/2 phosphorylation [6]: inhibited; sensitivity [7]: highly sensitive; EC50 (H2228 cells [2]): 26.1 µM

Which “resistance of cell line” value (H226 cell line [8]) does the source give for COc1cc2ncnc(Nc3ccc(F)c(Cl)c3)c2cc1OCCCN1CCOCC1 [gefitinib] here?
Its value is “resistant”.

B1: huEGFR-7R antibody (antibody, V domains shown)
VH: QVQLVQSGAEVAKPGASVKLSCKASGYTFTSYWMQWVKQRPGQGLECIGTIYPGDGDTTYTQKFQGKATLTADKSSSTAYMQLSSLRSEDSAVYYCARYDAPGYAMDYWGQGTLVTVSS
VL: DIQMTQSPSSLSASVGDRVTITCRASQDINNYLAWYQHKPGKGPKLLIHYTSTLHPGIPSRFSGSGSGRDYSFSISSLEPEDIATYYCLQYDNLLYTFGQGTKLEIKR
Which results are given for B1?
cell growth inhibition (HCC827 cell line; HCC827 + 50 ng/mL HGF): further reduced; cell growth inhibition (HCC827 cell line; HCC827, absence of HGF): marginal activities; effect on tumor cell growth (Detroit 562): had no effect; cytotoxic effect (HCC827-ER cell line [9]): little effect; EC50, in vitro cytotoxicity (WST-8 cell viability) on parental HCC827 (Aichi) cells [10]: 0.000426 µM; sensitivity [7]: highly sensitive; effect on tumor cell growth (H226 cell line [11]): neither the huEGFR-7R antibody nor cetuximab had effect; sensitivity / resistance (HCC827 ER (Aichi) cells): highly resistant; sensitivity / resistance (HCC827 EPR (Aichi) cells): highly resistant; cytotoxic effect (HCC827-ER-E4 cell line [12]): little effect; cytotoxic effect (NCI-H1975 cell line): did not have any effect
